Measured values taken from article PMC4358968, “Lipid-Free Antigen B Subunits from Echinococcus granulosus: Oligomerization, Ligand Binding, and Membrane Interaction Properties” (PLoS Neglected Tropical Diseases, 2015).

Assays:
[1] = target: T1, EgAgB8/2 (antigen B subunit 2) (Echinococcus granulosus, UniProt Q27275); experiment: fluorimetric titration of 12-AS (direct probe binding, […]°C, TBS)
T1 construct: gene AgB2; recombinant lipid-free (RP-HPLC delipidated) EgAgB8/2 mature subunit, GST fusion cleaved with thrombin; GenBank AAC47169

[2] = target: T2, EgAgB8/3 (antigen B subunit 3); experiment: fluorimetric titration of 12-AS (direct probe binding, TBS); set-up: species or system Echinococcus granulosus
T2 construct: gene EgAgB3; recombinant lipid-free (RP-HPLC delipidated) EgAgB8/3 mature subunit, GST fusion cleaved with thrombin; GenBank AAK64236

[3] = target: recombinant EgAgB8/2 subunit of Echinococcus granulosus antigen B (Echinococcus granulosus); experiment: SEC; 100 uL of lipid-free EgAgB8/2 (324 uM) or EgAgB8/3 (320 uM) loaded separately on Superdex 200 HR 10/30 in PBS, 0.5 mL/min; apparent molecular weight against BSA, carbonic anhydrase and cytochrome c
[4] = target: recombinant EgAgB8/3 subunit of Echinococcus granulosus antigen B (Echinococcus granulosus); experiment: as above

CCCCCCC(CCCCCCCCCCC(=O)O)OC(=O)c1c2ccccc2cc2ccccc12 (stereo not shown) [12-AS, 12-(9-anthroyloxy) stearic acid]
Kd [1]: 160 ± 90 nM
Kd [2]: 340 ± 20 nM

recombinant EgAgB8/2 subunit of Echinococcus granulosus antigen B (natural protein)
stoichiometry N [3]: 7 to 8 subunits

recombinant EgAgB8/3 subunit of Echinococcus granulosus antigen B (natural protein)
stoichiometry N [4]: 4 to 5 subunits
